The record followed here is ChEMBL document CHEMBL4507263, “Data for DCP probe BAY-474” (2021).

Experiment [1] addresses Beta-1 adrenergic receptor (Homo sapiens) (UniProt P08588). The settings on record: Compound concentration 10.0 uM.
Experiment [2] addresses Alpha-1B adrenergic receptor (Homo sapiens) (UniProt P35368). To be noted: Compound concentration 10.0 uM.
Experiment [3] has as its target Alpha-2C adrenergic receptor (Homo sapiens) (UniProt P18825). To be noted: Compound concentration 10.0 uM.
Experiment [4] has as its target D(2) dopamine receptor (Homo sapiens) (UniProt P14416). To be noted: Compound concentration 10.0 uM.
Experiment [5] addresses Hepatocyte growth factor receptor (Homo sapiens, UniProt P08581). As to the kind of experiment: Homogeneous Time Resolved Fluorescence Assay.
Experiment [6] addresses T1, 5-hydroxytryptamine receptor 1A (Homo sapiens) (UniProt P08908).
T1 sequence (whole entry): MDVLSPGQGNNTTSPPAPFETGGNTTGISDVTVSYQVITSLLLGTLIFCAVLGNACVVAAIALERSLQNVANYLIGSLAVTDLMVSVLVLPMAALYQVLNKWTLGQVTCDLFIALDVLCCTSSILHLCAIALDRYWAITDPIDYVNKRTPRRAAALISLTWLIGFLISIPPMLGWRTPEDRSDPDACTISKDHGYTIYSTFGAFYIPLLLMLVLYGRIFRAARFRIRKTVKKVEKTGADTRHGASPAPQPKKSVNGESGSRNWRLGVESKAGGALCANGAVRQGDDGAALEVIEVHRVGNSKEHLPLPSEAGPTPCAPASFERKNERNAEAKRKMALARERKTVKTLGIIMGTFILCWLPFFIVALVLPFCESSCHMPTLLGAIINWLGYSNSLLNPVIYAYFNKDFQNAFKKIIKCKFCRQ
The settings on record: Compound concentration 10.0 uM.

The target of another experiment is D(1B) dopamine receptor (Homo sapiens, UniProt P21918). To be noted: Compound concentration 10.0 uM.
Experiment [7] addresses Sigma intracellular receptor 2 (Homo sapiens) (UniProt Q5BJF2). The settings on record: Compound concentration 10.0 uM.
The target in experiment [8] is Beta-2 adrenergic receptor (Homo sapiens) (UniProt P07550). The settings on record: Compound concentration 10.0 uM.
Experiment [9] deals with D(1A) dopamine receptor (Homo sapiens) (UniProt P21728). To be noted: Compound concentration 10.0 uM.
Experiment [10] deals with Histamine H2 receptor (Homo sapiens) (UniProt P25021). To be noted: Compound concentration 10.0 uM.
Experiment [11] has as its target Beta-3 adrenergic receptor (Homo sapiens) (UniProt P13945). The settings on record: Compound concentration 10.0 uM.
The target of experiment [12] is T2, D(4) dopamine receptor (Homo sapiens) (UniProt P21917).
T2 sequence (whole entry): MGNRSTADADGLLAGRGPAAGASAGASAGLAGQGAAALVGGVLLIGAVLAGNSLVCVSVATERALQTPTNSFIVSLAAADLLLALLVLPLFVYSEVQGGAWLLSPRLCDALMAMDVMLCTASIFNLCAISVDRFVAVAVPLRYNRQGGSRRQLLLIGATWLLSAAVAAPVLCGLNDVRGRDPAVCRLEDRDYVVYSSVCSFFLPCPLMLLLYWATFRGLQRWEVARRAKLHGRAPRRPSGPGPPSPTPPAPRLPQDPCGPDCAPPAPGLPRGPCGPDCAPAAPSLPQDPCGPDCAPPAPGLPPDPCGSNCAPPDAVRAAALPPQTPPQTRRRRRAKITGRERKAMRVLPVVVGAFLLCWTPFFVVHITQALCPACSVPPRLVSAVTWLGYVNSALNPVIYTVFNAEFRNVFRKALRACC
To be noted: Compound concentration 10.0 uM.

Experiment [13] has as its target 5-hydroxytryptamine receptor 2C (Homo sapiens) (UniProt P28335). To be noted: Compound concentration 10.0 uM.
The target in experiment [14] is 5-hydroxytryptamine receptor 3A (Homo sapiens) (UniProt P46098). To be noted: Compound concentration 10.0 uM.
Experiment [15] addresses Mu-type opioid receptor (Homo sapiens) (UniProt P35372). To be noted: Compound concentration 10.0 uM.
Experiment [16] addresses T3, Muscarinic acetylcholine receptor M1 (Homo sapiens) (UniProt P11229).
T3 sequence (whole entry): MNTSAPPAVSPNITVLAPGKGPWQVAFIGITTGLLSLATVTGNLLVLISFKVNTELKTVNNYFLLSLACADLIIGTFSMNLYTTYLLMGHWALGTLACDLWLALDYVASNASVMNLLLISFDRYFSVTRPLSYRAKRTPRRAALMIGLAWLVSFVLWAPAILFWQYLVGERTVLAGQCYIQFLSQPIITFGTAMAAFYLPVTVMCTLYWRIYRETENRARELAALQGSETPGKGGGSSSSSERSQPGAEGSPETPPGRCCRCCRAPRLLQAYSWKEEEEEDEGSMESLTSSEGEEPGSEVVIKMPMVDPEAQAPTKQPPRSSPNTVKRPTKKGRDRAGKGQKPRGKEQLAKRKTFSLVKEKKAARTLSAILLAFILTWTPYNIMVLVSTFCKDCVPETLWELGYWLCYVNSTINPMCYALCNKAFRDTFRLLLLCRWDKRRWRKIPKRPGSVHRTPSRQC
To be noted: Compound concentration 10.0 uM.

Experiment [17] deals with Muscarinic acetylcholine receptor M5 (Homo sapiens) (UniProt P08912). The settings on record: Compound concentration 10.0 uM.
Experiment [18] concerns the target 5-hydroxytryptamine receptor 6 (Homo sapiens, UniProt P50406). To be noted: Compound concentration 10.0 uM.
Experiment [19] addresses 5-hydroxytryptamine receptor 7 (Homo sapiens) (UniProt P34969). The settings on record: Compound concentration 10.0 uM.
Experiment [20] deals with Muscarinic acetylcholine receptor M4 (Homo sapiens) (UniProt P08173). To be noted: Compound concentration 10.0 uM.
Experiment [21] has as its target Sigma non-opioid intracellular receptor 1 (Homo sapiens) (UniProt Q99720). To be noted: Compound concentration 10.0 uM.
For experiment [22], the target named is T4, Muscarinic acetylcholine receptor M2 (Homo sapiens) (UniProt P08172).
T4 sequence (whole entry): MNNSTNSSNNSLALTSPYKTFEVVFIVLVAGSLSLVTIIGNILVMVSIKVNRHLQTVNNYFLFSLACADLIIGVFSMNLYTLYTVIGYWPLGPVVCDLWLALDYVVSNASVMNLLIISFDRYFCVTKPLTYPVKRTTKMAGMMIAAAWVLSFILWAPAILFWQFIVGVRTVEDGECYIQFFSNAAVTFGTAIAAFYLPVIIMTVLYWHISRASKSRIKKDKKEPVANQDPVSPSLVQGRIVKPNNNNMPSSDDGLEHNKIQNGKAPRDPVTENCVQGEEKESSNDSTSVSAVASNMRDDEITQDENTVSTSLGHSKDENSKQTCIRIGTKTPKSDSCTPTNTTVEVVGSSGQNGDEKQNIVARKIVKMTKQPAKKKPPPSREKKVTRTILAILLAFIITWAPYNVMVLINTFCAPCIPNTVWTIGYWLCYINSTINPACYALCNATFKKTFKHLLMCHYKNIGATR
To be noted: Compound concentration 10.0 uM.

Calls of active or inactive are those of the source. No cut-off for these calls is given here. Where only a bound is given, the exact number is not on record here.

Sequence of 5-hydroxytryptamine receptor 3A (Homo sapiens) (P46098 whole entry): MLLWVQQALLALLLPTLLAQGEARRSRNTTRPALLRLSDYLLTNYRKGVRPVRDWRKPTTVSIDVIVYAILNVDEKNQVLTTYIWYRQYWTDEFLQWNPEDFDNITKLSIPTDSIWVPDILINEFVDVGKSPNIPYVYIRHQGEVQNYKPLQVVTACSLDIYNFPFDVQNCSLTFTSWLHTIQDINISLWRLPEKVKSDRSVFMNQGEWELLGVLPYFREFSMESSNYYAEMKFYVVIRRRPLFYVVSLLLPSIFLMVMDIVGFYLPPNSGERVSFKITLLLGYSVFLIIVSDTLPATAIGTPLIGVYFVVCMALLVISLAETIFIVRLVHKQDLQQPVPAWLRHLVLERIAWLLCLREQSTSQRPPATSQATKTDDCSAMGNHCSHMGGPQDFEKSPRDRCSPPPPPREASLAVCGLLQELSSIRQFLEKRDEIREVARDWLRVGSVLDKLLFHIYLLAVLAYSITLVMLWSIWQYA
Sequence of Alpha-2C adrenergic receptor (Homo sapiens) (P18825 whole entry): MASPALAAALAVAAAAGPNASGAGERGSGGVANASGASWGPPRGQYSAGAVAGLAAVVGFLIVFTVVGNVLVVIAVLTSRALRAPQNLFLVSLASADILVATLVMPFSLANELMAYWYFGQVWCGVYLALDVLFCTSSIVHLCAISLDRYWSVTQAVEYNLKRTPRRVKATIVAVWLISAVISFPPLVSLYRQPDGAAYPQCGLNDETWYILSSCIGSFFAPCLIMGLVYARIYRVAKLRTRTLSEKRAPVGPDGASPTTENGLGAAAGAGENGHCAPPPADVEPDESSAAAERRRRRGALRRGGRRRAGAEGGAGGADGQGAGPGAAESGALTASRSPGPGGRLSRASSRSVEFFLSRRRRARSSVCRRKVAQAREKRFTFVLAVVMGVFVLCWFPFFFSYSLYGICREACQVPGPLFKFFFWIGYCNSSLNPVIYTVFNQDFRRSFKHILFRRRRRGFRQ
Sequence of Muscarinic acetylcholine receptor M5 (Homo sapiens) (P08912 whole entry): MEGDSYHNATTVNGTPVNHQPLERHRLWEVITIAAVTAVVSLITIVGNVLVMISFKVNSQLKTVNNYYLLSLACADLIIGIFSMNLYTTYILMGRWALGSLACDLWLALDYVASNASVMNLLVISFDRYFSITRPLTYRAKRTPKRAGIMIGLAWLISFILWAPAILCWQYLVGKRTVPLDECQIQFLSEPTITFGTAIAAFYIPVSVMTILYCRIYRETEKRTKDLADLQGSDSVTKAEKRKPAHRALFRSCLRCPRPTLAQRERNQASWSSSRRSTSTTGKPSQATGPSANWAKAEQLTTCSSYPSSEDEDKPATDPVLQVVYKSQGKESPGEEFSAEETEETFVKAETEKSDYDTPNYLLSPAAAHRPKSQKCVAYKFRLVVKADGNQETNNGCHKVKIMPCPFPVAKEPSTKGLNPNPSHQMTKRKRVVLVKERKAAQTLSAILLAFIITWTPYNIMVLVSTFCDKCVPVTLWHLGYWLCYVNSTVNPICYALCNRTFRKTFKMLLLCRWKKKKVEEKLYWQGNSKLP
Sequence of Beta-2 adrenergic receptor (Homo sapiens) (P07550 whole entry, looked up): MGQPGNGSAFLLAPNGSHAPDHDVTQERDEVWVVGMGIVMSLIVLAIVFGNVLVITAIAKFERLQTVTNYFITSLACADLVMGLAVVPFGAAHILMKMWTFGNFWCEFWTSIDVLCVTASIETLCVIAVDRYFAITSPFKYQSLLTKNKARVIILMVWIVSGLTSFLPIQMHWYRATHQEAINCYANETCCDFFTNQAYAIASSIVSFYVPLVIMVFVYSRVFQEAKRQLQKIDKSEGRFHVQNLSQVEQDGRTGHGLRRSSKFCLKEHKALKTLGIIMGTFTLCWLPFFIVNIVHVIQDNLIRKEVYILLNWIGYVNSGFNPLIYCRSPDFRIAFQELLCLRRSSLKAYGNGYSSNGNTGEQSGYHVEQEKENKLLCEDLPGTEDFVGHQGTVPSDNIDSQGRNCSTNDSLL
Sequence of 5-hydroxytryptamine receptor 7 (Homo sapiens) (P34969 whole entry): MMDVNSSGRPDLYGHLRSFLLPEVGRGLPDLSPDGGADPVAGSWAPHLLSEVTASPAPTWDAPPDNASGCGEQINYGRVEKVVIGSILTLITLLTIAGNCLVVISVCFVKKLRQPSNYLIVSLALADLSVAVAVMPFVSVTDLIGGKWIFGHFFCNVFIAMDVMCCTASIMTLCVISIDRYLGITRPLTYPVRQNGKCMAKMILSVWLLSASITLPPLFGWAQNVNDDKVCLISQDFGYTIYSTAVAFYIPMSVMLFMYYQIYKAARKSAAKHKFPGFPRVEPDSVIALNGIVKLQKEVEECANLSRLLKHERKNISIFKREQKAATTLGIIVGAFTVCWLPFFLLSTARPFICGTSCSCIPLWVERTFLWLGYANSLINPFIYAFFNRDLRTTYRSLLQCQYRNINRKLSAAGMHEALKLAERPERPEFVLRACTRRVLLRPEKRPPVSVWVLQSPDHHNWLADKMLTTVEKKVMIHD
Sequence of Mu-type opioid receptor (Homo sapiens) (P35372 whole entry): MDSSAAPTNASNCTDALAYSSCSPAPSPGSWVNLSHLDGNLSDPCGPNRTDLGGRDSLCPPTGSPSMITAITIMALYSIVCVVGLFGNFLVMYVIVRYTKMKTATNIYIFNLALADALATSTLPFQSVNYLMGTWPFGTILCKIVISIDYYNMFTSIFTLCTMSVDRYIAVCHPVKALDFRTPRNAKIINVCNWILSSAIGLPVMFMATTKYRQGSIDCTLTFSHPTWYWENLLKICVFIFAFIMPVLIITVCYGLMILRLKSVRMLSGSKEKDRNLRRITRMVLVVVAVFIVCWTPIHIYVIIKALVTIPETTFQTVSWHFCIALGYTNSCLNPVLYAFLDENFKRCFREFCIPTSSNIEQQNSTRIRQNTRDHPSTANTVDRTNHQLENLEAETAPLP
Sequence of Sigma intracellular receptor 2 (Homo sapiens) (Q5BJF2 whole entry): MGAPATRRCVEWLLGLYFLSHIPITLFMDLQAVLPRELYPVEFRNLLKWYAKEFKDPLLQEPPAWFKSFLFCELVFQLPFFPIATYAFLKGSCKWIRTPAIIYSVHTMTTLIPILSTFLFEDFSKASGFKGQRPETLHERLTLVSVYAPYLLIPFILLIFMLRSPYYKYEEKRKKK
Sequence of 5-hydroxytryptamine receptor 6 (P50406 whole entry): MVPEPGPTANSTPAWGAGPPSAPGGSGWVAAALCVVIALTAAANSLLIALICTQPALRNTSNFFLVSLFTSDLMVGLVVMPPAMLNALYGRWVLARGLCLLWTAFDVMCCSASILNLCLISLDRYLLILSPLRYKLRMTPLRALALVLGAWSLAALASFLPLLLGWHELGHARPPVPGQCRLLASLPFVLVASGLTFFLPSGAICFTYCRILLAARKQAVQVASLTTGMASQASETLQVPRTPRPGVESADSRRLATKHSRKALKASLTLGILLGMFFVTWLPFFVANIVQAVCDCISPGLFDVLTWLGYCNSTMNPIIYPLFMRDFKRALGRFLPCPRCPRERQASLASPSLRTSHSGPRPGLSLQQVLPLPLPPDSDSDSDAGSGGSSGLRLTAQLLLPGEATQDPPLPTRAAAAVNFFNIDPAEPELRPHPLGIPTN
Sequence of Hepatocyte growth factor receptor (P08581 whole entry): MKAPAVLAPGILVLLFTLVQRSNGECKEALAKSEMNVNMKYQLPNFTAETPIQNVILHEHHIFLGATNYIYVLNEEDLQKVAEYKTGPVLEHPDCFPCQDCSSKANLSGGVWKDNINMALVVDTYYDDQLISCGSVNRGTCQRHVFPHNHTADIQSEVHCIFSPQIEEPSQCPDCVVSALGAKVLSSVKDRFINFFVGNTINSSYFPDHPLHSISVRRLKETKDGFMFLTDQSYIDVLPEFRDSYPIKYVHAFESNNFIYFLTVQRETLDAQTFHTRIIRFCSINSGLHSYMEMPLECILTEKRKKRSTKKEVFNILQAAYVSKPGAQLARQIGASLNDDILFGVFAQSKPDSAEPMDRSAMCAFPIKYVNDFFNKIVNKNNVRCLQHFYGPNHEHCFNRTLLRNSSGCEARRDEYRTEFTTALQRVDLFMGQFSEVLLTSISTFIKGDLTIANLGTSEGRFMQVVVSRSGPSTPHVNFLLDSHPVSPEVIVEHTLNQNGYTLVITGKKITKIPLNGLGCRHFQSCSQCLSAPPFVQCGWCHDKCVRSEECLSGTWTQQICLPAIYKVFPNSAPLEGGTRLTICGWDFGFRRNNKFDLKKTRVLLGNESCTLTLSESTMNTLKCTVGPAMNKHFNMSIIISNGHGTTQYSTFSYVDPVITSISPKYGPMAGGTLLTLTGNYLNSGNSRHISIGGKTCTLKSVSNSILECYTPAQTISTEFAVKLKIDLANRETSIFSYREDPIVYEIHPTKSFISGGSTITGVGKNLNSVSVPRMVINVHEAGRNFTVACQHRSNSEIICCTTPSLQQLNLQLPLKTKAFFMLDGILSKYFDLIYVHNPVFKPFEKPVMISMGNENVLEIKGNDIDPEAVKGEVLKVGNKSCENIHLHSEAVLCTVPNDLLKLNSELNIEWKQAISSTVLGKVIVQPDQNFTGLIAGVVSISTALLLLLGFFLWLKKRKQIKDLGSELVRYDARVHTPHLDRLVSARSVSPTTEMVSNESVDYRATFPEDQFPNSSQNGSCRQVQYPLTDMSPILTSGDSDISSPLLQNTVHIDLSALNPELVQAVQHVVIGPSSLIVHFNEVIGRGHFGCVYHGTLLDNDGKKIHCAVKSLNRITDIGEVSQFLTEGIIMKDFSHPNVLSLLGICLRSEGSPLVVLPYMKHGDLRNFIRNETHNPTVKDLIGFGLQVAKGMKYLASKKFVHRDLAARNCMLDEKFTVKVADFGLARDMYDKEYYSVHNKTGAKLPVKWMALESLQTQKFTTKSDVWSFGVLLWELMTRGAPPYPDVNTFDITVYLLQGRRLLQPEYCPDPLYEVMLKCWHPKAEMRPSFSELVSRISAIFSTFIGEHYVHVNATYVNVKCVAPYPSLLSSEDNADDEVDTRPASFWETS
Sequence of Sigma non-opioid intracellular receptor 1 (Homo sapiens) (Q99720 whole entry): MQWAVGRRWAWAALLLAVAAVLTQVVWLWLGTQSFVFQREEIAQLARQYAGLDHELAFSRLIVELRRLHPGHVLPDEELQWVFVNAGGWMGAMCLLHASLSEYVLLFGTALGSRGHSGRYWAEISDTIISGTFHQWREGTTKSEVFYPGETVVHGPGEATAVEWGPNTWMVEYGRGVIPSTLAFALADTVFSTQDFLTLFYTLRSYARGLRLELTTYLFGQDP

With `CC1=C(C#N)[C@@H](c2ccc3[nH]nc(C)c3c2)C(C#N)=C(c2ccc(Cl)cc2)N1` [BAY-827], the inhibition in [1] is 4.66%; in [2], 21.7%; in experiment [3], -1.57%; in [4], 10.6%; in [6], 2.67%; at D(1B) dopamine receptor it was 58.1%. In addition, the inhibition is 23.4% in experiment [7]; -0.813% in [8]; 6.7% in [9]; 14.1% in experiment [10]; 24.3% in experiment [11]; 5.34% in [12]. Also, the inhibition is 71.8% in [13]; 2.6% in experiment [14]; -0.0207% in [15]; 8.17% in experiment [16]; 9.95% in [17]; 55.7% in experiment [18]. Moreover, the inhibition in experiment [19] is 8.19%; in experiment [20] it was 13%; in experiment [21], 14.6%; in experiment [22], 18.8%. The IC50 in [5] is listed as 11 µM (not active).

Consider `CC1=C(C#N)C(c2ccc3[nH]nc(C)c3c2)C(C#N)=C(C)N1` [BAY-474], for which the inhibition was 2.16% in experiment [1]; 1.79% in experiment [2]; -4.65% in experiment [3]; -7.07% in [4]; -5.32% in experiment [6]; 5.4% at D(1B) dopamine receptor. Also, the inhibition in experiment [7] was 23.9%; in experiment [8], 20.2%; in [9] it was 6.92%; in experiment [10] it was 12.6%; in [11], 21.1%; in experiment [12], 24%. Further, the inhibition in [13] was 22.4%; in experiment [14] it was 33%; in experiment [15], 2.64%; in [16], 13.9%; in experiment [17] it was 5.48%; in experiment [18], 20.7%. The inhibition in [19] was -0.97%; in [20], 5.33%; in experiment [21], -9.08%; in [22], -8.64%. Moreover, the concentration for half-maximal inhibition (IC50) in [5] was < 0.001 µM (active).
